Reference: patent US11446307B2, “Crystalline forms of a deoxycytidine kinase inhibitor and uses thereof” (Trethera Corporation, priority 2020, dated 2022)

How the values were obtained:
[1] = Accelerated stability tests of polymorph Form II (HPLC purity and potency); format: physicochemical
Experimental: High-performance liquid chromatography (HPLC) was performed using the following instrument and/or conditions.

[2] = test system: myelin oligodendrocyte glycoprotein (MOG)-induced experimental autoimmune encephalomyelitis (EAE); assay: Variable dose mouse model of MOG-induced experimental autoimmune encephalomyelitis (EAE); format: in vivo; conditions: vehicle BID 18 days, Log-rank p=0.039
Experimental: 60 female C57BL/6 mice were housed for an acclimation period of 1 week. 53 mice were enrolled in the study after randomization with a body weight between 18.3-22.3 g with an average body weight of 19.7 g per group on Study day minus 1.
For induction of MOG-EAE, MOG35-55 peptide was administered in phosphate buffered saline (PBS) and complete Freund's adjuvant (CFA). MOG35-55 peptide in PBS was emulsified in a 1:1 (v:v) mixture with CFA via homogenization in an Omni BeadRuptor Elite using 7 mL tubes pre-filled with 2.8 mm ceramic beads. Briefly, MOG35-55 peptide was brought up to 1 mg/mL in cold PBS, and 1.75 mL aliquoted into each homogenization tube. An equal volume (1.75 mL) CFA was then added for a total volume of 3.5 mL, on ice. Two rounds of homogenization were performed using a speed of 3.5 m/s; 3 cycles of 45 seconds with 30 seconds dwell at 4° C., followed by a third round with 2 cycles of 45 seconds and 30 seconds dwell at 4° C. In between each round, samples were placed on ice for ˜15 minutes. Tubes were spun down at 300 g for 1 minute at 4° C. Mice were anesthetized under isoflurane anesthesia. 100 μL (50 μg MOG35-55) was then injected subcutaneously into the flank of each leg (for a total of two injections and 100 μg MOG35-55). On Study Day 0 and Day 2, pertussis toxin was formulated at a concentration of […] in PBS, and 100 μL (200 ng) injected into each animal by intraperitoneal injection.
Treatment was performed BID starting on Day 1 for groups 2, 3, and 4, and once daily (QD) starting on day 1 for group 5. All experimental groups were n=12. The administration interval was 12 hours and the administration volume was 5 mL/kg.
The Body condition score of all animals was monitored on study Days 0, 7, 10 and then every other day. […]
Disease severity was scored on Day 0, 7 and every 2 days beginning on Day 10 onward for all groups. […]
Disease incidence rate was calculated as percentage of total animals per group starting from day 0 until termination on study day 28. […]

[3] = test system: myelin oligodendrocyte glycoprotein (MOG)-induced experimental autoimmune encephalomyelitis (EAE); assay: Mouse model of MOG-induced experimental autoimmune encephalomyelitis (EAE), prophylactic and therapeutic dosing; format: in vivo; conditions: 75 mg/kg P.O. BID Days 8-25 (therapeutic)
Experimental: Adult female C57BL/6J mice were randomly allocated to experimental groups and allowed to acclimatize for one week prior to commencing the study. On Day 0 and Day 7, animals were administered an emulsion (200 μL/mouse) of MOG35-55 and complete Freund's adjuvant (CFA). […]. On Day 0 (immediately post-MOG injection) and Day 2, animals were administered with pertussis toxin (PTx, 500 ng/mouse) prepared in phosphate buffered saline (PBS, 100 μL/mouse) by intra-peritoneal injection.
Treatment was performed twice daily (BID) prophylactically starting on Day 1 for groups 1, 2, and 4, and therapeutically starting on day 8 for group 3. All experimental groups were n=12. The administration interval was 12 hours and the administration volume was 5 mL/kg.
Because body weight loss is known to be an important hallmark of EAE occurring in correspondence of the appearance of the first symptoms, animals were weighed daily from the day of immunization (Day 0) until the end of the experiment. The changes in body weight observed over the course of the experiment for the different experimental groups, presented as mean±SEM, are summarized in FIG. 7. […]
From Day 0 until the end of the experiment, animals were scored daily for clinical signs of EAE to include paresis and paralysis affecting the tail and the limbs. […]

SMILES: COc1ccc(-c2nc([C@@H](C)Sc3nc(N)cc(N)n3)c(C)s2)cc1OCCN1CCOCC1 [polymorph Form II, (R)-2-((1-(2-(4-methoxy-3-(2-morpholinoethoxy)phenyl)-5-methylthiazol-4-yl)ethyl)thio)pyrimidine-4,6-diamine]
- Potency (%) ([1]; 25° C./60% RH for 1 week): 98.7%
- Purity (area %) ([1]; 25° C./60% RH for 1 week): 98.75 area %
- Potency (%) ([1]; 40° C./75% RH for 1 week): 98.6%
- Purity (area %) ([1]; 40° C./75% RH for 1 week): 98.66 area %
- Potency (%) ([1]; 60° C. for 1 week): 98.6%
- Purity (area %) ([1]; 60° C. for 1 week): 98.75 area %
- Potency (%) ([1]; API standard (no exposure)): 98.6%
- Purity (area %) ([1]; API standard (no exposure)): 98.22 area %

SMILES: COc1ccc(-c2nc([C@@H](C)Sc3nc(N)cc(N)n3)c(C)s2)cc1OCCN1CCOCC1 [Compound 1, (R)-2-((1-(2-(4-methoxy-3-(2-morpholinoethoxy)phenyl)-5-methylthiazol-4-yl)ethyl)thio)pyrimidine-4,6-diamine]
- median time to disease ([2]; 25 mg/kg BID PO): 18 days
- median time to disease ([2]; 75 mg/kg BID PO): 19 days
- median time to disease ([2]; 100 mg/kg QD PO): 20 days
- animals showing no symptoms at all (complete remission) ([3]; after Day 20): ~27%
- disease incidence (highest reached) ([3]; on Day 19, vehicle reached 100% on Day 13): ~92%
